Molecular target: T1, IGF1R (Homo sapiens, UniProt P08069)
T1 construct: purchased Thermo Fisher Scientific (Life Technologies) SelectScreen
Assay: SelectScreen Z'LYTE
Type: biochemical
How it was run: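 Percent values come from Thermo SelectScreen profiling of NU5455, combining activity and binding assays. CSF1R was run in Z'LYTE format at Km app ATP, and CAMK1 in Adapta format with ATP listed at 10.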

T1 sequence (P08069 31-1367): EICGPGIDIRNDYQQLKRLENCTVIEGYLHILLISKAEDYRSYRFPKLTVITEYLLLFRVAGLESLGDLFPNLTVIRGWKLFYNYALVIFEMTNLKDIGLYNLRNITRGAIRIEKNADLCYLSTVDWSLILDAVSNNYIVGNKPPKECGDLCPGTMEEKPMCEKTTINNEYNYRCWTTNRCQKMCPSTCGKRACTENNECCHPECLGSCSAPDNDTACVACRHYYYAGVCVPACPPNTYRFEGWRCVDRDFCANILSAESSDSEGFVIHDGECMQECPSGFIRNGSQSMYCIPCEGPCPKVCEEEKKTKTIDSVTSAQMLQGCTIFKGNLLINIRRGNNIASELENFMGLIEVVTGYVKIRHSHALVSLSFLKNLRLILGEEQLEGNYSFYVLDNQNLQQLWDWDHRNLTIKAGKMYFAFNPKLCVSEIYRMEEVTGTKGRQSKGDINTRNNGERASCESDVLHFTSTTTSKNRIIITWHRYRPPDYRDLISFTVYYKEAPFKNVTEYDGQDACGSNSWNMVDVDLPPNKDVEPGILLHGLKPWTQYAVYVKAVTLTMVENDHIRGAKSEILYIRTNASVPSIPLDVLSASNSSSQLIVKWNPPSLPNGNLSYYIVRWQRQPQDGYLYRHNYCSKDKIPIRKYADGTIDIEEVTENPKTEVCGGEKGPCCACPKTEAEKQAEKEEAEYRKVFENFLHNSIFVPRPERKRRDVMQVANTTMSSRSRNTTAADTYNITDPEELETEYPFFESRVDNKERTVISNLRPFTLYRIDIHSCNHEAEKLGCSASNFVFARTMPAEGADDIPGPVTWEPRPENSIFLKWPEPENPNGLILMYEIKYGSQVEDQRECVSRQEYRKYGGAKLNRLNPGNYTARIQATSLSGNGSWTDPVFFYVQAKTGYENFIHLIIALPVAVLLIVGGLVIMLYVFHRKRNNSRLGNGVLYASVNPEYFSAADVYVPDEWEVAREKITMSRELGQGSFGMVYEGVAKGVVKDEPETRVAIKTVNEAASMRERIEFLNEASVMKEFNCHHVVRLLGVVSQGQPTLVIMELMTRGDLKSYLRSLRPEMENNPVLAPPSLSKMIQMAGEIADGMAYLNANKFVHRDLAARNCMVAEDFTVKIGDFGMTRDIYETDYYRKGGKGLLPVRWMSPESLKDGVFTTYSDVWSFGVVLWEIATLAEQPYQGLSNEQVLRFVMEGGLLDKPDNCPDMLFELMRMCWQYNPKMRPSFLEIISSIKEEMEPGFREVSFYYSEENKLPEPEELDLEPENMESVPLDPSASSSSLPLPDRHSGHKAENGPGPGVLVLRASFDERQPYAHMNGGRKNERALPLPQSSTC

## CN(C(=O)CN1CCOCC1)c1ccc2sc3c(-c4cccc5c(=O)cc(N6CC7CCC(C6)O7)oc45)cccc3c2c1 [NU5455]
  inhibition at 1 µM: 9.7%

— PMC6934184, “Selective DNA-PKcs inhibition extends the therapeutic index of localized radiotherapy and chemotherapy” (The Journal of Clinical Investigation, 2019)
